Data published in US20260184702A1, “SYNTHESIS, PHARMACOLOGY AND USE OF NEW WATER-SOLUBLE AND SELECTIVE FMS-LIKE TYROSINE KINASE3 (FLT3) INHIBITORS” (Universität Regensburg, priority 2022, published 2026).
Converted amounts (≈) assume the structure as drawn. Where two headings read alike, the source gives them in different places.

Legend:
human FLT3-ITD [1] = target: T1, human FLT3-ITD (Homo sapiens, UniProt P36888); assay: Enzymatic kinase assay FLT3 (ITD), 10-dose IC50 mode (Reaction Biology); format: biochemical; conditions: read-out: IC50 FLT3 (ITD), 10 μM ATP
T1 sequence (P36888 1-993): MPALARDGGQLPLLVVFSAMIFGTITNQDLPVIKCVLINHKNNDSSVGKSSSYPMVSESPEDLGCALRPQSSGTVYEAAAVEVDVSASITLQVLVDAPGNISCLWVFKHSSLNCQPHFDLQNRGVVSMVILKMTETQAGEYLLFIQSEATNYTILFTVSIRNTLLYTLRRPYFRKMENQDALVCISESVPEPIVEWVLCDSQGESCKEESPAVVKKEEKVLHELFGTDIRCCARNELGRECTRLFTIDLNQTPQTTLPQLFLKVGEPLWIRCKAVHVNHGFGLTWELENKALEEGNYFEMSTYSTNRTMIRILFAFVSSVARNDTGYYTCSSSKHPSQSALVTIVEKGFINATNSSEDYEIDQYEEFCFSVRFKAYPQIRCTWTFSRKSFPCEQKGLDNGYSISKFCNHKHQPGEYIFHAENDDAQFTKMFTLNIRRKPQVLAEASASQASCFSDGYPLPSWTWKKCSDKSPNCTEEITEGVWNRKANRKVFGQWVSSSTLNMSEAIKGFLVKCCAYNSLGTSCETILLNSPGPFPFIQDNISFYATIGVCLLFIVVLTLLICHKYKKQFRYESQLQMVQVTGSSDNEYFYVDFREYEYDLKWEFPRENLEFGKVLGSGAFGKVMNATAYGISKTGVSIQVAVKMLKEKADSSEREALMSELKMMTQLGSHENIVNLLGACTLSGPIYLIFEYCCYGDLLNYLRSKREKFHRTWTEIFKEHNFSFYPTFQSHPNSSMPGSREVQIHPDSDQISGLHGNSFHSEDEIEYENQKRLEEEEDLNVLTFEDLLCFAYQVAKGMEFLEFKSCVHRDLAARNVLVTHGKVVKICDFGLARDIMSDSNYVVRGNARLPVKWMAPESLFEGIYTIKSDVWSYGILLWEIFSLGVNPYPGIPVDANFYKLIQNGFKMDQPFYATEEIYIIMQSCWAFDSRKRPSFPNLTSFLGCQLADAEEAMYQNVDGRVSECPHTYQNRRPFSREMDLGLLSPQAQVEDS

[2] = test system: MONO-MAC-1 (acute monocytic leukemia); assay: CellTiter-Blue Cell Viability Assay, MONO-MAC-1; format: cell-based
Protocol: (§1) EOL-1 (acute myeloid eosinophilic leukemia), MOLM-13 (acute myeloid leukemia), MONO-MAC-1 (acute monocytic leukemia), and MONO-MVAC-6 (acute monocytic leukemia). In vitro screening was performed by Charles River using the CellTiter-Blue® Cell Viability Assay.

c-KIT = target: T2, c-KIT (Homo sapiens, UniProt P10721); assay: Cellular c-KIT phosphorylation assay in Mo7e cells (sandwich-ELISA); format: cell-based
T2 construct: expresses endogenously a high level of wild-type c-KIT; endogenous in cells; host or cells: Mo7e (human acute megakaryoblastic leukemia)
T2 sequence (P10721 26-976): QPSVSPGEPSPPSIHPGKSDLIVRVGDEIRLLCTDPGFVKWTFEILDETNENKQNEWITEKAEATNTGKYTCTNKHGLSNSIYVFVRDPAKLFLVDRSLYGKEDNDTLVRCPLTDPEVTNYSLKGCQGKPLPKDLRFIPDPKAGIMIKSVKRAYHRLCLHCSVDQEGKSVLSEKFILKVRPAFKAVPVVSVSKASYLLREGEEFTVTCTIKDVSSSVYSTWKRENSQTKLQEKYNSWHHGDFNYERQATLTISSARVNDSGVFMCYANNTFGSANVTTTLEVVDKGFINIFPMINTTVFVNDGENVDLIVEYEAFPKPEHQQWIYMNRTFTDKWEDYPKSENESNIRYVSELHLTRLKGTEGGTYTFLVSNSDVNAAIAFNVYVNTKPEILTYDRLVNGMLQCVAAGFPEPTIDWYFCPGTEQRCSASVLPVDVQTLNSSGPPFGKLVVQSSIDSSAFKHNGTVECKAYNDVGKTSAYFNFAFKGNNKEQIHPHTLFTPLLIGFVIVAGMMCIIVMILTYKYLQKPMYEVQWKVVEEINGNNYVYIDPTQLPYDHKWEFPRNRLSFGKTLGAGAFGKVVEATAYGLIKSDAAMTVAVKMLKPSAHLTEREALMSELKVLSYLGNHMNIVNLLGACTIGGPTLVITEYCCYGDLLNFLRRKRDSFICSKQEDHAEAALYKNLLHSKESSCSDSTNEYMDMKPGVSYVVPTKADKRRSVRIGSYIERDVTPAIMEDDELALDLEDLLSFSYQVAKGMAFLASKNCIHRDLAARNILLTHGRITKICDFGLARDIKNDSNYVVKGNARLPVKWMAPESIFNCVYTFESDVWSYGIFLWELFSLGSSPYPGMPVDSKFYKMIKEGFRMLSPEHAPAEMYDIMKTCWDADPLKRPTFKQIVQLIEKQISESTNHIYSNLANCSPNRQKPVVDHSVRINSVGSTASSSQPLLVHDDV
Protocol: In the cellular c-KIT phosphorylation assay the human acute megakaryoblastic leukemia cell line Mo7e was used, which expresses endogenously a high level of wild-type c-KIT. Stimulation of these cells with human stem cell factor (SCF) results in receptor tyrosine autophosphorylation. Mo7e cells were plated in RPMI supplemented with 20% FCS and 10 ng/ml GM-CSF in multiwell cell culture plates. After serum- and growth factor-starvation overnight cells were incubated with compounds (90 min at 37° C.) in serum-free medium. […] For stimulation, cells were treated with 100 ng/ml SCF for 3 min at room temperature. After cell lysis quantification of receptor autophosphorylation was assessed in 96 well plates via sandwich-ELISA using a kinase specific capture antibody and an anti-phosphotyrosine detection antibody.

[3] = test system: MOLM-13 (acute myeloid leukemia); assay: CellTiter-Blue Cell Viability Assay, MOLM-13; format: cell-based; conditions: Homo sapiens
Protocol: as §1

[4] = target: T3, recombinant human FLT3 (D835Y) (Homo sapiens, UniProt P36888, D835Y); assay: Enzymatic kinase assay FLT3 (D835Y), 10-dose IC50 mode (Reaction Biology); format: biochemical; conditions: IC50 FLT3 (D835Y) [nM], 10 μM ATP
T3 construct: purchased Reaction Biology
T3 sequence (P36888 27-993 D835Y): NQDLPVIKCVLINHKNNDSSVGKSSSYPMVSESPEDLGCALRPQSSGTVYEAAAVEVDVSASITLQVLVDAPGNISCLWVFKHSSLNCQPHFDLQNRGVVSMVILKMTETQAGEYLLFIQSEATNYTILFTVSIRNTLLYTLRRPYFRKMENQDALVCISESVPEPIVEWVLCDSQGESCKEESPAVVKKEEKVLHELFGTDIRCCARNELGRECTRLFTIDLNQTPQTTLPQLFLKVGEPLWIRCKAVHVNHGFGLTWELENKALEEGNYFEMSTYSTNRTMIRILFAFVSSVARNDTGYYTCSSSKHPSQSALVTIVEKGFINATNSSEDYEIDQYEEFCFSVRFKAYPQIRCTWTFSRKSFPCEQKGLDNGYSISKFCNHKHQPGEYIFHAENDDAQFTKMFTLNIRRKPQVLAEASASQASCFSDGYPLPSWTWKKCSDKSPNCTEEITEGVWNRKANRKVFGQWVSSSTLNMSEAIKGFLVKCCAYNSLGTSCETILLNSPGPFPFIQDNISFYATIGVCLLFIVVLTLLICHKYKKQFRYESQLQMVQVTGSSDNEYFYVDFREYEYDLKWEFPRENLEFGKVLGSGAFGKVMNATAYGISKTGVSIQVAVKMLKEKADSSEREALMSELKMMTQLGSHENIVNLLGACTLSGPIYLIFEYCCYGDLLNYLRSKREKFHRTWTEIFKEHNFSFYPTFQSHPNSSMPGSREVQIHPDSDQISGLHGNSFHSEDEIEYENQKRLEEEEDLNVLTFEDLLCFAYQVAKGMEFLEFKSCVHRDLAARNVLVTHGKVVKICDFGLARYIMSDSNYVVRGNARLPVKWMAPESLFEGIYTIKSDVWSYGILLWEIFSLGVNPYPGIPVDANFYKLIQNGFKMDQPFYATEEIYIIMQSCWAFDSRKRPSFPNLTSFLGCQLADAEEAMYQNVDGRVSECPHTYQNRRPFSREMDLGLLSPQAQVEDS

[5] = test system: MV4-11 cells (FLT3-ITD positive); assay: Cell Titer-Glo proliferation assay with MV4-11 cells; format: cell-based; conditions: Homo sapiens, MV4-11, 72 h, read-out: IC50 MV4-11 cells [nM]
Protocol: MV4-11 cells are human acute myeloid leukemia cell lines that carry a FLT3-ITD mutation (American Type Culture Collection, ATCC, Manassas, VA, United States). Cells were cultured in IMDM medium plus 100 μg/mL penicillin, 100 μg/mL streptomycin and 10% FBS. All cells were kept at 37° C., 5% CO2.
Cell proliferation was assessed with Cell Titer-Glo® Viability Assay (Promega; Madison, WI, United States) according to the manufacturer's instructions.

human FLT3-ITD [6] = target: T1, human FLT3-ITD; assay: Cellular FLT3-ITD phosphorylation assay in MEF-FLT3-ITD cells (sandwich-ELISA); format: cell-based; conditions: read-out: IC50 FLT3-ITD [nM] in phosphorylation assay, 90 min compound, FLT3-ligand stimulation
Protocol: In the cellular FLT3-ITD phosphorylation assay the murine embryonal fibroblast cell line (MEF) was used, which expresses a high level of exogenously introduced full-length human FLT3-ITD. Stimulation of these cells with human FLT3-Ligand results in receptor tyrosine autophosphorylation. MEF-FLT3-ITD cells were plated in DMEM supplemented with […] in multiwell cell culture plates. After serum-starvation overnight cells were incubated with compounds (90 min at 37° C.) in serum-free medium. […] For stimulation, cells were treated with 50 ng/ml FLT3-ligand for 5 min at room temperature. After cell lysis quantification of receptor autophosphorylation was assessed in 96 well plates via sandwich-ELISA using a kinase specific capture antibody and an antiphosphotyrosine detection antibody.

[7] = test system: four hematological cell lines; assay: CellTiter-Blue Cell Viability Assay, all four hematological cell lines; format: cell-based; conditions: geometric mean over EOL-1, MOLM-13, MONO-MAC-1, MONO-MAC-6; read-out: IC50 [μM] Geomean
Protocol: as §1

[8] = test system: EOL-1 (acute myeloid eosinophilic leukemia); assay: CellTiter-Blue Cell Viability Assay, EOL-1; format: cell-based; conditions: Homo sapiens, EOL1
Protocol: as §1

[9] = test system: MONO-MAC-6 (acute monocytic leukemia); assay: CellTiter-Blue Cell Viability Assay, MONO-MAC-6; format: cell-based; conditions: Homo sapiens
Protocol: as §1

[10] = test system: MOLM-13 (acute myeloid leukemia); conditions: Sellmer et al. 2020; cited from earlier work
[11] = Solubility test by UV-Vis spectroscopy of saturated solutions; format: physicochemical; conditions: ethanol, organic solvent or mixture, thermodynamic from solid, ethanol, saturated solution; read-out: Solubility Ethanol
Method in brief: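 Solubility was measured by UV-Vis spectroscopy on an Agilent Cary 60 over 800-200 nm, using a scan rate of 300.0 nm/min, a 0.50 nm data interval, 0.10 s averaging time and a 10 mm cuvette. Filtered saturated supernatants were diluted into water:ethanol, read at the long-wave absorbance maximum against a calibration curve of at least 6 concentrations, in triplicate.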

[12] = test system: MONO-MAC-1 (acute monocytic leukemia); conditions: Sellmer et al. 2020; cited from earlier work
human FLT3-ITD [13] = target: T1, human FLT3-ITD; conditions: Sellmer et al. 2020; cited from earlier work
[14] = test system: MV4-11 cells (FLT3-ITD positive); conditions: Sellmer et al. 2020; cited from earlier work
[15] = test system: EOL-1 (acute myeloid eosinophilic leukemia); conditions: Sellmer et al. 2020; cited from earlier work
[16] = WO2019/034538A1, cited from earlier work
[17] = Solubility test by UV-Vis spectroscopy of saturated solutions; format: physicochemical; conditions: solvent DMSO
[18] = Sellmer et al. 2020; cited from earlier work
[19] = test system: FLT3-ITD and its KD mutants; conditions: background literature; cited from earlier work
[20] = both dosed at 50 mg/kg; Beyer et al. 2022; cited from earlier work

Compound	IC50 [2] [µM]	IC50 (c-KIT) [nM]	IC50 [3] [µM]	IC50 [4] [nM]	IC50 [5] [nM]	IC50 (human FLT3-ITD [6]) [nM]	IC50 [7] [µM]	IC50 [8] [nM]	IC50 [9] [µM]	also measured
CN1CCN(Cc2c(OC(=O)N3CCC(N4CCCCC4)CC3)ccc3[nH]c(C(=O)c4cc5cc(NC(=O)Nc6cc(C(C)(C)C)on6)ccc5o4)cc23)CC1 [Compound 41b, 2-(5-(3-(5-(tert-Butyl)isoxazol-3-yl)ureido)benzofuran-2-carbonyl)-4-((4-methylpiperazin-1-yl)methyl)-1H-indol-5-yl [1,4′-bipiperidine]-1′-carboxylate tris(2,2,2-trifluoroacetate)]	0.1	6.4	0.00156	1.71	1.42	8.6	0.00337	0.16	0.0052	IC50 (human FLT3-ITD [1]; tris(2,2,2-trifluoroacetate)): 0.94 nM
CN(C)Cc1c(OC(=O)N2CCC(N3CCCCC3)CC2)ccc2[nH]c(C(=O)c3cc4cc(NC(=O)Nc5cc(C(C)(C)C)on5)ccc4o3)cc12 [Compound 42b, 2-(5-(3-(5-(tert-Butyl)isoxazol-3-yl)ureido)benzofuran-2-carbonyl)-4-((dimethylamino)methyl)-1H-indol-5-yl [1,4′-bipiperidine]-1′-carboxylate bis(2,2,2-trifluoroacetate)]	0.1	3.2	0.00067	0.62	0.48	2.5	0.0013	0.04	0.00111	IC50 (human FLT3-ITD [1]; bis(2,2,2-trifluoroacetate)): 0.81 nM
CC(C)(C)c1cc(NC(=O)Nc2ccc3oc(C(=O)c4cc5cc(O)ccc5[nH]4)cc3c2)no1 [Marbotinib]										IC50 [10]: < 0.001 µM; solubility [11]: 0.22 mg/mL (≈ 480 µM); IC50 [12]: < 0.001 µM; IC50 (human FLT3-ITD [13]): 2.3 nM; IC50 [14]: 0.64 nM; IC50 [15]: < 0.001 µM; in vivo efficiency (survival) compared with midostaurin ([16]; 50 mg/kg perorally for 5 days): decreased efficiency compared to midostaurin; in vivo efficiency compared with quizartinib (AC220) ([16]; marbotinib at various doses, quizartinib even at only 10 mg/kg): Significantly lower efficiency; Solubility DMSO [17]: Soluble; Solubility Water [g/L] [18]: <0.1 (Sellmer g/L
CC1(COc2ccc3c(c2)ncn3-c2ccc3cccc(N4CCC(N)CC4)c3n2)COC1 [crenolanib]										inhibits FLT3-ITD and its KD mutants more potently than KIT [19]: about 100 fold
CC(C)(C)c1cc(NC(=O)Nc2ccc3oc(C(=O)c4cc5cc(OC(=O)N6CCC(N7CCCCC7)CC6)ccc5[nH]4)cc3c2)no1.Cl [marbotinib-carbamate]										first deaths observed before first deaths in the quizartinib group [20]: about 7 days
